{"source": "paper PMC5505654", "about": "(European journal of medicinal chemistry, 2017)", "key": {"A/WSN/33 (H1N1) virus": {"system": "A/WSN/33 (H1N1) virus", "type": "cell-based, influenza A virus"}, "[1]": {"target": "AM2-S31N mutant of the A/M2 proteins (Influenza A virus, UniProt P0DOF5, S31N)", "type": "biochemical", "settings": "pH 5.5"}}}
{"smiles": "CC(C)[Si](c1ccc(CNC23CC4CC(CC(O)(C4)C2)C3)cc1)(C(C)C)C(C)C", "note": "[Compound 5f]", "values": [{"measurement": "A/WSN/33 EC50", "setting": "A/WSN/33 (H1N1) virus", "value": "inactive"}, {"measurement": "% AM2-S31N inhibition", "setting": "[1]", "value": "inactive"}]}
